# In publication PMC12655351, “Synthesis and Anticancer Activity Evaluation of New 5-((5-Nitrofuran-2-yl)allylidene)-2-thioxo-4-thiazolidinones” (Pharmaceuticals, 2025):
# Where “and” joins values, the source holds several entries; their conditions need not be identical. Identical values can stand only once. Like-named read-outs stand apart in the source and are kept apart here.
# Tests used:
# CCRF-CEM [1] = conditions: 48 h
# SF-539 = conditions: SF-539, 10 μM, 48 h
# OVCAR-8 = conditions: OVCAR-8, 48 h
# A498 = conditions: A498, 48 h
# BT-549 = conditions: BT-549, 10 μM, 48 h
# Melanoma = Melanoma subpanel
# Renal Cancer = Renal Cancer subpanel
# [2] = test system: panel of 60 cancer cell lines
# CCRF-CEM [3] = test: cells; conditions: Homo sapiens, 48 h
# K-562 = test: cells; conditions: Homo sapiens, K562, 48 h
# RPMI-8226 = test: cells; conditions: Homo sapiens, RPMI-8226, 48 h
# NCI-H23 = test: cells; conditions: Homo sapiens, NCI-H23, 48 h, read-out: LC50, NCI-H23, 48 h
# HT29 = test: cells; conditions: Homo sapiens, HT-29, 48 h
# 786-0 = test: cells; conditions: Homo sapiens, 786-0, 48 h
# [4] = test system: Non-small cell lung cancer; test: cells; conditions: Homo sapiens
# Breast cancer = test: cells; conditions: Homo sapiens
# NCI-H322M = test: NCI-60 SRB screen; conditions: 48 h
# NCI-H460 = test: NCI-60 SRB screen; conditions: NCI-H460, 48 h
# SNB-19 = test: NCI-60 SRB screen
# SK-MEL-2 = test: NCI-60 SRB screen; conditions: Homo sapiens, SK-MEL-2, 48 h, read-out: LC50, SK-MEL-2, 48 h
# ACHN = test: NCI-60 SRB screen; conditions: 48 h
# RXF 393 = test: NCI-60 SRB screen; conditions: RXF 393, 10 μM, 48 h
# MCF7 = test: NCI-60 SRB screen; conditions: MCF7, 48 h
# Colon cancer = test: NCI-60 SRB screen, subpanel
smiles,measurement,setting,value
"O=C(O)CCCN1C(=O)/C(=C/C=C/c2ccc([N+](=O)[O-])o2)SC1=S [13b, 4-((Z)-5-((E)-3-(5-Nitrofuran-2-yl)allylidene)-4-oxo-2-thioxothiazolidin-3-yl)butanoic acid]",GI50,CCRF-CEM [1],120 nM
same,TGI,CCRF-CEM [1],820 nM and 780 nM
same,growth GP,SF-539,-98.91%
same,growth GP,"SK-MEL-5; SK-MEL-5, 10 μM, 48 h",-98.67%
same,GI50,"SK-MEL-5; SK-MEL-5, 48 h",1210 nM
same,TGI,"SK-MEL-5; SK-MEL-5, 48 h",1970 nM and 2680 nM
same,CC50,"SK-MEL-5; human, 48 h",5960 nM
same,TGI,"UACC-257; UACC-257, 48 h",3150 nM and 1730 nM
same,CC50,"UACC-257; human, 48 h",4660 nM
same,growth GP,"OVCAR-4; OVCAR-4, 10 μM, 48 h",-97.74%
same,GI50,"OVCAR-4; OVCAR-4, 48 h",1560 nM
same,TGI,"OVCAR-4; OVCAR-4, 48 h",2580 nM and 2940 nM
same,CC50,"OVCAR-4; human, 48 h",5540 nM
same,GI50,OVCAR-8,270 nM
same,TGI,OVCAR-8,2250 nM and 1240 nM
same,GI50,A498,3320 nM
same,TGI,A498,11500 nM and 8160 nM
same,growth GP,"CAKI-1; CAKI-1, 10 μM, 48 h",-96.66%
same,GI50,"CAKI-1; CAKI-1, 48 h",770 nM
same,TGI,"CAKI-1; CAKI-1, 48 h",1970 nM and 2040 nM
same,growth GP,"DU-145; DU-145, 10 μM, 48 h",-99.43%
same,GI50,"DU-145; DU-145, 48 h",1150 nM
same,TGI,"DU-145; DU-145, 48 h",2320 nM and 2830 nM
same,CC50,"DU-145; human, 48 h",7010 nM
same,growth GP,BT-549,-98.54%
same,MG_MID TGI,Melanoma,1460 nM
same,MG_MID TGI,Renal Cancer,2600 nM
same,Positive cytostatic effect (ratio of cell lines with GP from 0 to 50 to total number),"[2]; 10 μM, 48 h",2/55
same,Mean growth,"[2]; 10 μM, 48 h, one dose",-76.34%
same,MG_MID TGI,[2]; full panel (last line of Table S2),4880 nM
same,GI50,CCRF-CEM [3],190 nM
same,GI50,"K-562; K-562, 48 h",160 nM
same,CC50,K-562; read-out: LC50,> 100000 nM
same,GI50,RPMI-8226,360 nM
same,CC50,RPMI-8226; read-out: LC50,> 100000 nM
same,CC50,NCI-H23,6240 nM
same,GI50,"HT29; HT29, 48 h",450 nM
same,CC50,"HT29; read-out: LC50, HT29, 48 h",5440 nM
same,GI50,786-0,320 nM
same,GI50,[4]; read-out: MG_MID GI50,1210 nM
same,CC50,[4]; read-out: MG_MID LC50,24600 nM
same,GI50,Breast cancer; read-out: MG_MID GI50,530 nM
same,CC50,Breast cancer; read-out: MG_MID LC50,36000 nM
same,GI50,NCI-H322M,1970 nM
same,TGI,NCI-H322M,8090 nM and 5500 nM
same,GI50,NCI-H322M; Homo sapiens,2520 nM
same,CC50,"NCI-H322M; Homo sapiens, read-out: LC50, NCI-H322M, 48 h",28300 nM
same,GI50,NCI-H460; Homo sapiens,630 nM
same,CC50,"NCI-H460; Homo sapiens, read-out: LC50",4940 nM
same,GI50,NCI-H460,330 nM
same,TGI,NCI-H460,1990 nM and 1390 nM
same,CC50,"SNB-19; Homo sapiens, SNB-19, 48 h, read-out: LC50, SNB-19, 48 h",6050 nM
same,growth GP,"SNB-19; SNB-19, 10 μM, 48 h",-96.10%
same,TGI,"SNB-19; SNB-19, 48 h",3160 nM and 2100 nM
same,CC50,SK-MEL-2,6120 nM
same,growth GP,ACHN; 10 μM,-100.00%
same,TGI,ACHN,2210 nM and 1350 nM
same,CC50,"ACHN; Homo sapiens, read-out: LC50, ACHN, 48 h",4700 nM
same,growth GP,RXF 393,-97.90%
same,GI50,MCF7; Homo sapiens,350 nM
same,GI50,MCF7,200 nM
same,TGI,MCF7,1970 nM and 1580 nM
same,MG_MID TGI,Colon cancer; Colon cancer subpanel,1350 nM
same,GI50,"Colon cancer; Homo sapiens, read-out: MG_MID GI50",520 nM
same,CC50,"Colon cancer; Homo sapiens, read-out: MG_MID LC50",11900 nM
